Biological target: MAP kinase-activated protein kinase 2 (Homo sapiens, UniProt P49137)
Test: Inhibition of MK2 in human TERT immortalised HCA2 cells assessed as inhibition of anisomycin-induced HSP27 phosphorylation at 2.5 uM by ELISA

Chain of MAP kinase-activated protein kinase 2 (P49137 whole entry): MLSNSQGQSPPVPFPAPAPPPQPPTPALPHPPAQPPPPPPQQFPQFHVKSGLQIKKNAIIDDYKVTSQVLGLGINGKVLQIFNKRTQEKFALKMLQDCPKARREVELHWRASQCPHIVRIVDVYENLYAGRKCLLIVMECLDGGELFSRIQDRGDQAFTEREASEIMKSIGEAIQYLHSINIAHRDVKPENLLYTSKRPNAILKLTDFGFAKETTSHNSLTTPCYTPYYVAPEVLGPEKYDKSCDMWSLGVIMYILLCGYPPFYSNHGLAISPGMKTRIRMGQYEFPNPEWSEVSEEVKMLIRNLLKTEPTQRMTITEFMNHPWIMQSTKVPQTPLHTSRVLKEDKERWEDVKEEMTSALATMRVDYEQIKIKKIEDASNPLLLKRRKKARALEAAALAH

`O=C(CCCc1ccc(-c2ccccc2F)cc1)Nc1ccc(O)cc1` gave a Ki of 0.33 µM.
